{
  "source": "patent US20230390289A1",
  "about": "“COMBINED USE OF IN10018 AND PLD” (INXMED (NANJING) CO., LTD., priority 2021, published 2023)",
  "assay": "Study IN10018-006 safety: adverse events (CTCAE)",
  "conditions": "female, human, in vivo",
  "method": "IN10018 in combination with pegylated liposomal doxorubicin (PLD) for the treatment of platinum-resistant ovarian cancer is currently being evaluated in a Phase Ib/II clinical study (IN10018-006) in China. The IN10018 was used as its tartrate, and the PLD was used as commercially available doxorubicin hydrochloride liposome injection (common name). Study subjects received IN10018 100 mg once daily (QD) orally combined with PLD 40 mg/m^2 by intravenous infusion once every 4 weeks (Q4W). A treatment cycle was 28 days.\nBy Jul. 30, 2021, a total of 26 patients with platinum-resistant ovarian cancer had been enrolled in the study. All subjects received at least one study drug treatment and were included in the safety analysis; 18 subjects had at least one post-baseline tumor imaging evaluation and were included in efficacy analysis.\nBy Jun. 22, 2021, 21 of the 22 subjects enrolled had adverse events (AEs), and according to the investigator's assessment, 20 of them had AEs related to IN10018. Regardless of the correlation, the system organ classes (SOC) of AE reported by at least 2 subjects were investigations (90.9%), gastrointestinal disorders (81.8%), renal and urinary disorders (72.7%), general disorders and administration site conditions (59.1%), metabolism and nutrition disorders (59.1%), infections and infestations (54.5%), blood and lymphatic system disorders (50.0%), respiratory, thoracic and mediastinal disorders (27.3%), musculoskeletal and connective tissue disorders (22.7%), skin and subcutaneous tissue disorders (18.2%), nervous system disorders (13.6%), cardiac disorders (18.2%) and psychiatric disorders (9.1%).\nBy Jun. 22, 2021, a total of 5 of the 22 subjects enrolled had serious adverse events (SAEs), of which 3 subjects reported SAEs related to IN10018: loss of appetite (grade 3, related to both IN10018 and PLD), constipation (grade 2, related to both IN10018 and PLD), abdominal distension (grade 3, related to both IN10018 and PLD), and elevated creatinine (grade 2, related to both IN10018 and PLD). No subject had adverse events leading to dose reduction of IN10018. Adverse events leading to discontinuation of study treatment were reported by 2 subjects, wherein loss of appetite (grade 3) leading to discontinuation in 1 subject was associated with both IN10018 and PLD. […] There were no adverse events leading to death in the study.",
  "data": [
    {"compound": "COc1cc(C(=O)NC2CCN(C)CC2)c(F)cc1Nc1ncc(C(F)(F)F)c(Oc2cccc3c2C(=O)N(C)C3)n1", "note": "[IN10018, 2-fluoro-5-methoxy-4-[(4-(2-methyl-3-oxo-2,3-dihydro-1H-isoindole-4-oxy)-5-trifluoromethyl-pyrimidin-2-yl)amino]-N-(1-methyl-piperidin-4-yl)benzamide]", "values": [
      {"measurement": "SAE abdominal distension, grade", "value": 3, "unit": "grade"},
      {"measurement": "SAE constipation, grade", "value": 2, "unit": "grade"},
      {"measurement": "SAE elevated creatinine, grade", "value": 2, "unit": "grade"},
      {"measurement": "SAE loss of appetite, grade", "value": 3, "unit": "grade"}
    ]}
  ]
}
